Reference: patent US20100297256A1, “METHODS AND COMPOSITIONS FOR INHIBITING INTEGRINS USING TELLURIUM-CONTAINING COMPOUNDS” (priority 2007, published 2010)

Key:
[1] = test system: chick chorioallantoic membrane; assay: Chick chorioallantoic membrane (CAM) angiogenesis assay; type: in vivo; settings: 5 μg/ml combined with ECGS 50 μg/ml, 3 days
Description: Collagen I solution was prepared by mixing 1.8 ml of collagen I, 4.14 μl of […] NaOH and 0.2 ml of 10×PBS/200 mM HEPES (pH 7.4). 10 μl of a mixture containing 0.1 ml of the collagen I solution and 0.2 ml of PBS either with or without AS101 (5 μg/ml) or SAS (5 μg/ml) was loaded onto a quarter piece of a Thermonox disc and gelled by warming to room temperature for 15 minutes. The disc was then applied to the chorioallantoic membrane of a 10-days-old embryo, following preparation of the eggs by removing 2 ml of albumin from the 3-days-old embryo and by “opening a window” to the 7-day-old embryo. ECGS (50 μg/ml) in PBS was used to induce angiogenesis and 5 μg/ml of AS101 or SAS were mixed with ECGS. After 3-days incubation, the negative or positive response was assessed under a binocular. Positive response, namely the appearance of a typical spokewheel pattern of new blood vessels around the loaded samples, was determined by a blinded observer. Assays for each test sample were carried out three times, and each experiment contains 10 to 12 eggs/data point.

[2] = test system: SVEC4-10 endothelial cells; assay: Tube formation assay, SVEC4-10; type: cell-based, murine; settings: SVEC4-10 on Matrigel, 3 hours
Description: Plates (48 wells) were coated with 150 μl of Matrigel and incubated at 37° C. for 1 hour to promote gelling. Svec4-10 or HUVEC cells (40,000 cells) in 0.5 ml of serum-free DMEM with varying concentration of AS101 or SAS were added to each well. For positive control, ECGS was added at a concentration of 50 μg/ml. All samples were performed in sextuplicate. After 3 hours incubation, the plates were fixed with methanol and stained with crystal violet. Randomly chosen fields were photographed and density of tube formation was analyzed by imageJ.

[3] = test system: aortic arches; assay: Chick aortic arch assay; type: cell-based; settings: for vessel length and number, sprouting induced by ECGS / length of tubes exiting from arches / number of tubes exiting from arches: 0.5-5 μg/ml; for vessel length and number, sprouting induced by ECGS: 100 μg/ml ECGS; for length of tubes exiting from arches / number of tubes exiting from arches: without ECGS; for toxicity in aortic arch assay (re-sprouting after washing): data not shown
Description: Aortic arches were removed from fertilized chicken eggs at day 13 of embryonic development. The eggs were cracked into a sterile 100 mm culture dish. The embryo was removed from its surroundings by cutting away the associated membranes and yolk sac. The chicken embryo was placed ventral side up to surgically expose the heart and aortic arches. The heart and aortic arch were removed and placed into a sterile culture dish containing PBS to which 1% penicillin-streptomycin was added. Arches, from which the surrounding adventitia had been removed, were cut into 0.8 mm sections. Each arch was placed onto drop of Matrigel that was deposited on the bottom of a 48-well culture plate just prior to adding the ring. An additional drop of ice-cold Matrigel was spread on each aortic arch. Matrigel was allowed to solidify before adding 500 μl of human endothelial-SFM basal growth medium. […] Quantitative evaluation of tubule formation was performed by a blinded observer on a scale of 1-3 (least to maximum sprouting).

[4] = test system: SVEC4-10 cells; assay: Boyden chamber migration assay; type: cell-based, murine; settings: 6 hours
Description: Migration assay was performed in a 48-well microchemotaxis chamber. Polyester membranes with 8 μm pores were coated with 0.1 mg/ml of collagen I in DMEM and then dried for 1 hour. B16F10 and Svec4-10 cells were harvested using TE and resuspended in DMEM containing 0.1% BSA. The bottom chamber was loaded with Svec4-10 supernatant/DMEM (1:5) containing varying concentration of AS101 or SAS and the filter was laid over the treatment solutions. Non-diluted Svec4-10 supernatant was used as a positive control. The upper wells were then loaded with 30,000 cells, the chamber was incubated at 37° C. for 6 hours and the filters were fixed and stained using Diff-Quick. The cells that migrated through the filter were quantified by counting the center of each well in a 36-box grid at ×20 using an Olympic CK2 microscope. Each condition was studied in triplicate wells, and each experiment was performed three times.

[5] = test system: LAN-1 cells; assay: Cell attachment assay, LAN-1; type: cell-based, human; settings: for cell attachment to fibronectin: LAN-1; for cell attachment to C16 and AG73 peptides: LAN-1, data not shown, compared with SVEC4-10
Description: The cell attachment assays were performed in sextuplicate in 96-well plates. The 1 μg of C16 or AG73 peptide in 60 μl double-distilled water was added to each well, and this volume was allowed to air dry overnight in a biosafety hood at room temperature (or fibronectin 20 ng/80 μl for 1 hour at 37° C.). Thereafter, nonspecific binding sites of the tissue culture plastic were blocked by adding 200 μl of 1% bovine serum albumin (BSA) in PBS for 1 hour at 37° C. LAN-1, B16F10 and SVEC4-10 cells were harvested by agitation, washed three times in serum-free DMEM and resuspended in 1% BSA-DMEM. After 20 minutes incubation in 1% BSA in a tube, cells were washed and resuspended in 0.1% BSA. The cells were counted using a hemocytometer and brought to a final cell count of 1×10^6/ml in the 0.1% BSA medium. Cells were divided into tubes and each tube was treated with one of the following in DMEM: ECGS (endothelial cell growth supplement) (50 μg/ml), AS101 (1-5 μg/ml), SAS (1-5 μg/ml), ECGS (50 μg/ml)+SAS (1-5 μg/ml), ECGS (50 μg/ml)+AS101 (1-5 μg/ml), 10% serum, 10% serum+AS101 (1-5 μg/ml) or 10% serum+SAS (1-5 μg/ml).
Next, 150 μl of the treated cell suspension was added to each well (20,000 cells/well), which had been coated with peptides, and incubated for 50 minutes at 37° C. After 50 minutes, the unattached cells were removed by aspiration and the remaining attached cells were fixed and stained by crystal violet. 100 μl aliquot of 10% SDS was thereafter added to each well for cell lysis and dye release and absorption was read with a TECAN spectrophotometer at 570 nm.
Attached cells were washed with PBS without Ca^+2/Mg^+2. 100 μl of 0.2% crystal violet in 20% methanol was thereafter added and the cells were incubated for 10 minutes at room temperature. At the end of incubation time, cells were washed twice with double-distilled water and 100 μl of 10% SDS was added. Dye bound to the cell is released by SDS and the absorption by the dye is measured by colorimetry at 570 nm. The amount of stained cells is then considered to be proportional to the measured absorption by the dye

[6] = test system: BV-2 cells; assay: Cell attachment assay, BV-2; type: cell-based, murine
[7] = test system: integrin β subunits; assay: Multiple anti-integrin antibody binding assay, β subunits; type: cell-based; settings: SVEC cells
Description: (§1) The specificity of tellurium-containing compounds to integrins was tested by examining the effect of AS101 and SAS on the attachment of SVEC cells to specific anti-integrin antibodies. Commercially available kits (R&D Biosystems) with anti-integrin coated wells were used, and attachment was determined according to the manufacturer's instructions.

[8] = test system: integrin α subunits; assay: Multiple anti-integrin antibody binding assay, α subunits; type: cell-based; settings: SVEC cells
Description: as §1

Row | Compound | angiogenic capability of ECGS [1] | number of tubes formed [2] | vessel length and number, sprouting induced by ECGS [3] | length of tubes exiting from arches [3] | number of tubes exiting from arches [3] | toxicity in aortic arch assay (re-sprouting after washing) [3] | directional migration of murine endothelial cells through the membrane [4] | cell attachment to fibronectin [5] | cell attachment to C16 and AG73 peptides [5] | cell attachment to fibronectin [6] | cell attachment to antibodies against integrin β subunits [7] | cell attachment to antibodies against integrin α subunits [8]
1 | Cl[TeH]1(Cl)(Cl)OCCO1 [AS101, ammonium trichloro(dioxyethylene-O,O′)tellurate] | reduced the angiogenic capability of ECGS to baseline levels | reduced the number of tubes formed | inhibit the vessel length and number | reduced their length | did not inhibit the number of tubes exiting from arches | non-toxic | inhibited the directional migration | inhibited cell attachment to fibronectin | similar | inhibited cell attachment to fibronectin | considerable inhibition | little if any inhibition
2 | O=C1O[Te]23OC(=O)C(O2)C2O[Te]4(OC(=O)C(O4)C1O3)OC2=O [SAS, [TeO4(COCH)2]2] | reduced the angiogenic capability of ECGS to baseline levels | reduced the number of tubes formed | inhibit the vessel length and number | reduced their length | did not inhibit the number of tubes exiting from arches | non-toxic | inhibited the directional migration | inhibited cell attachment to fibronectin | similar | inhibited cell attachment to fibronectin | considerable inhibition | little if any inhibition
